*: point of attachment. AMC = Cc1cc(=O)oc2cc(N*)ccc12
What was measured:
[1] = target: T1, bovine pancreatic trypsin (Bos taurus, UniProt P00760); assay: Trypsin release of AMC from lysyl-AMC compounds; assay type: biochemical; settings: 1 μM compound, trypsin 2 mg/ml, room temperature
T1 construct: purchased ENZO Life Sciences BML-KI105 or BML-KI176; host or cells: bovine pancreas
T1 sequence (P00760 24-246): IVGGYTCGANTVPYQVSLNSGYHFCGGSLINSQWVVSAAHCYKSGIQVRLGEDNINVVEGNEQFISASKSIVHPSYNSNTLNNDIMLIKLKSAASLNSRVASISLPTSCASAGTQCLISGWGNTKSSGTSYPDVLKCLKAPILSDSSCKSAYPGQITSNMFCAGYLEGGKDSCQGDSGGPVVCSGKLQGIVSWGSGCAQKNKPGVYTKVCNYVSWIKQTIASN
Protocol: FIG. 2 is a graph showing that trypsin treatment releases fluorescent AMC from Ac-Lys-AMC but not Ac-Lys(Succinyl)-AMC. Samples (100 μl) of 1 μM Ac-Lys-AMC and 1 μM Ac-Lys(Succinyl)-AMC in a buffered solution (50 mM Tris/HCl, pH 8.0, 137 mM NaCl, 2.7 mM KCl, 1 mM MgCl2) were treated with bovine pancreatic trypsin (2 mg/ml) for the indicated times at room temperature. Samples were in the wells of a 96-well, ½-area white microplate and fluorescence was measured at 1 min. intervals at the excitation and emission wavelengths for free AMC (Excitation: 360 nm; Emission: 460 nm) in a Synergy 2 microplate reading fluorimeter (BioTek), Gain 40. The data points at 0 min. represent the fluorescence of equivalent 1 μM Ac-Lys(Succ.)-AMC and 1 μM Ac-Lys-AMC samples in the absence of trypsin.
As noted in the Background of the Invention section above, the protease trypsin catalyzes the hydrolytic cleavage of amide bonds on the carboxyl side of unmodified lysine residues. Hydrolytic cleavage of lysyl amide bonds with AMC or rhodamine 110 (dye components of Compounds 1 and 2, respectively) releases the free amino forms of the dyes. This elicits an upward shift of the dye's fluorescence emission peak wavelength (bathochromic shift), for example to 460 nm for AMC or 530 nm for rhodamine 110. If succinylation of the ε-amino function of the lysine moieties in compounds such as 1 and 2 renders the amide bond between the carbonyl of lysine and the amino of dye groups such as AMC or rhodamine resistant to trypsin cleavage then, upon desuccinylation, the lysine/dye amide bond would become cleavable by trypsin. Note that removal of a single succinyl group from 2, followed by cleavage of the desuccinylated lysine would yield a compound with a single free amino function, Ac-K(Succ.)-R110. Monoamides of rhodamine 110 also have increased fluorescence emission at 530 nm relative to 2, although they are less fluorescent than rhodamine 110 itself (Liu et al., 1999). Thus, monitoring the fluorescence at the peak wavelength of the amino form of the dye would allow the desuccinylation reaction to be quantified. A schematic for such an assay is depicted for Compound 1 and SIRT5 in FIG. 1. Trypsin treatment (2 mg/ml) elicits an immediate increase in the fluorescence of a solution of Ac-Lys-AMC (Compound 6—FIG. 1) at the excitation and emission wavelengths of free AMC (Ex. 360 nm; Em. 460 nm), with maximum fluorescence achieved in 2 min. or less and ˜⅔ of that maximum occurring in 1 min. (FIG. 2).

HeLa cell extracts = assay: HeLa cell extract Ac-Lys(ε-succinyl)-AMC desuccinylation activity; assay type: biochemical, human; settings: 50 μM substrate, 500 μM NAD^+, no inhibitor, 2 hr., 37° C.
Protocol: Enzyme and extract catalog products obtained from ENZO Life Sciences included: HDAC1 (Cat. # BML-SE456), HDAC2 (Cat. # BML-SE500), HDAC3 (Cat. # BML-SE507), HDAC3/NCOR1 Complex (Cat. # BML-SE515), HDAC6 (Cat. # BML-SE508), HDAC8 (Cat. # BML-SE145), HDAC10 (Cat. # BML-SE559), HDAC11 (Cat. # BML-SE560), SIRT1 (Cat. # BML-SE239), SIRT2 (Cat. # BML-SE251), SIRT3 (Cat. # BML-SE270), SIRT5 (Cat. # BML-SE555), HeLa Nuclear Extract (Cat. # BML-KI140), Trypsin (“Fluor de Lys Developer”, 80 mg/ml bovine trypsin in 1 mM HCl, Cat. # BML-KI105 or “Fluor de Lys Developer II”, 80 mg/ml bovine trypsin in 1 mM HCl, Cat. # BML-KI176). […] Enzymes obtained from BPS Bioscience, San Diego, Calif. included: human recombinants SIRT4 (Cat. #50015), SIRT6 (Cat. #50017), SIRT7 (Cat. #50018). HeLa whole cell extract was obtained from HeLa S3 cells (American Type Culture Collection) grown in a medium of MEM/10% fetal bovine serum (FBS) as follows: 1) 9×10^6 cells were suspended by trypsinization, followed by a phosphate buffered saline (PBS) rinse and addition of MEM/10% FBS (1.5 mL) to eliminate trypsin before transfer to a 15 mL conical tube; 2) cells were sedimented by a low speed centrifugation, gently resuspended in PBS and sedimented again and supernatant removed; 3) lysis was induced by resuspension in 0.8 mL 50 mM Tris/HCl, pH 8.0 with the non-denaturing detergent NP-40 (0.5%), placement on ice and brief vortexing every 5 min. for 30 min.; 4) 100 μl of a concentrated salt solution in the same buffer was added in order to bring the final buffer composition to 50 mM Tris/C1, pH 8.0, 137 mM NaCl, 2.7 mM KCl, 1 mM MgCl2, 0.5% NP-40; 5) particulate matter was cleared by centrifugation and the cleared lysate supernatant transferred to a 1.5 mL Eppendorf tube and stored on ice until use in activity assays.
Assays were performed at 37° C., according to the manufacturer's instructions for the “SIRT1 Fluorometric Drug Discovery Kit” from Enzo Life Sciences (ELS) (Cat. # BML-AK555), with exceptions described as follows. […]

SIRT5 = target: T2, SIRT5 (Homo sapiens, UniProt Q9NXA8); settings: high and uncertain; maximum substrate concentration of 5 mM; read-out: Km estimate; cited from earlier work
T2 sequence (Q9NXA8 37-310): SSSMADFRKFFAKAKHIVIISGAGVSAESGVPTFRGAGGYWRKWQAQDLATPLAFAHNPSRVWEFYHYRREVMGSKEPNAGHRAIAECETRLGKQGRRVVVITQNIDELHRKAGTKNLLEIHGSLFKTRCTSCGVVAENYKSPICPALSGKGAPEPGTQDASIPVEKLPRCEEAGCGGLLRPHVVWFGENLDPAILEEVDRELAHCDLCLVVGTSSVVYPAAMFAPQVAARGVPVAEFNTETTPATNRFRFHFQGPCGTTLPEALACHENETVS

Trypsin cleavage / change in fluorescence ([1]; listed as Ac-Lys(Succ.)-AMC)	Compound	Trypsin cleavage / change in fluorescence [1]	Maximum fluorescence increase over 0 hr./NL (HeLa cell extracts)	Km (SIRT5)
no change in fluorescence	CC(=O)N[C@@H](CCCCNC(=O)CCC(=O)O)C(=O)Nc1ccc2c(C)cc(=O)oc2c1 [Compound 1, N—(N^α-acetyl-L-Lysine(N^ε-succinyl))-AMC]	complete resistance to the trypsin cleavage	22,000	–
–	Ac-Arg-His-Lys-Lys(ε-acetyl)-AMC (Ac-RHKK(Ac)-{AMC}; SMILES CC(=O)NCCCC[C@H](NC(=O)[C@H](CCCCN)NC(=O)[C@H](Cc1c[nH]cn1)NC(=O)[C@H](CCCNC(=N)N)NC(C)=O)C(=O)Nc1ccc2c(C)cc(=O)oc2c1) [Ac-RHKK(Ac)-AMC, p53 peptide fluorogenic deacetylase substrate, Cat. # BML-KI177, reference compound]	–	–	8.9 mM
